This note sets out measurements from patent US10894798B2, “Substituted dihydropyrrolopyrazole derivative” (UBE INDUSTRIES, LTD., priority 2015, dated 2021).

One assay addresses T1, CDK7 (Homo sapiens, UniProt P50613).
T1 construct: purchased Carna Biosciences, Inc. 04-108
The assay can be described thus: CDK7 enzyme inhibition test. It counts as biochemical. Particulars: [γ-33P]ATP, MBP substrate, 60 min preincubation at 25°C; Ki=IC50/(1+S/Km); read-out: Ki value of CDK7 inhibitory activity. Here is the method:
The preparation of a buffer solution was performed by mixing a N-2-hydroxyethylpiperazine-N′-2-ethanesulfonic acid buffer solution (HEPES buffer solution) (pH 7.4), dithiothreitol (DTT), Triton X-100, and magnesium chloride (MgCl2). A 500 μM [γ-^33P]ATP solution was used by diluting a 10 mM ATP solution and a commercially available [γ-^33P]ATP solution (manufactured by PerkinElmer, Inc., Code No. NEG-302H) with the buffer solution. A CDK7 solution was used by diluting commercially available CDK7 (manufactured by Carna Biosciences, Inc., Catalog No. 04-108) with the buffer solution. A substrate solution was used by diluting myelin basic protein (MBP) with the buffer solution. As for the preparation of a reaction solution, the buffer solution, the CDK7 solution, and the substrate solution were mixed at 4° C. to obtain a reaction solution.
CDK7 enzyme reaction was performed by adding 5 μL of a test compound solution prepared with 10% DMSO/90% injectable distilled water, and 40 μL of the reaction solution to a 1.5 mL microtube at 4° C. and preincubating the microtube at 25° C. for 60 minutes in a water bath incubator. Subsequently, reaction was performed at 30° C. for 20 minutes by adding 5 μL of the 500 μM [γ-^33P]ATP solution. After the reaction, a 10% aqueous trichloroacetic acid (TCA) solution was added to each microtube while cooled to 4° C., and mixed in a vortex mixer to terminate the reaction. The resultant was left standing at 4° C. for 10 minutes and then centrifuged, and the supernatant was discarded. Next, a 2% aqueous trichloroacetic acid (TCA) solution was added thereto, mixed in a vortex mixer, and then centrifuged, and the supernatant was discarded. This washing operation was performed twice. After the washing, precipitates were dissolved in a 1 N aqueous sodium hydroxide (NaOH) solution, and the energy quantity (radioactivity) of the reaction product was measured with a liquid scintillation counter.
The calculation of the inhibitory activity of the test compound against CDK7 was performed as a test compound concentration inhibiting 50% of the amount of ^33P bound to MBP (IC50 value) by using EXSUS (version 8.1.0, manufactured by CAC Exicare Corp.).
The calculation of a Ki value was performed according to the following calculation expression wherein S represents the concentration of ATP contained in the reaction solution, and Km represents a Michaelis-Menten constant: Ki=IC50/(1+S/Km)

The test system of assay [1] is human large intestine cancer cell line (HCT-116). The assay can be described thus: Human large intestine cancer (HCT-116) cell growth inhibition test. The format is cell-based. Particulars: HCT-116, 72 h, culture for 3 days, sulforhodamine B, read-out: GI50 value, HCT-116 cell growth inhibition. Here is the method: The measurement of a human large intestine cancer cell growth inhibitory effect was carried out by modifying the method of Simak et al. (Cancer Research, 69, 6208 (2009)).
A human large intestine cancer cell line (HCT-116, obtained from DS Pharma Biomedical Co., Ltd.) was cultured in a McCoy's 5A medium (manufactured by Thermo Fisher Scientific, Inc.) containing 10% fetal bovine serum (FBS) (manufactured by Thermo Fisher Scientific, Inc.) and 1% penicillin/streptomycin/amphotericin B (manufactured by Thermo Fisher Scientific, Inc.) and inoculated at 0.5 to 2.0×10^3 cells/well in a 96-well plate. After overnight culture in a carbon dioxide incubator, the medium was replaced with a fresh medium on the next day, and a test compound dissolved in DMSO (final DMSO concentration: 0.1%) was added thereto and left standing in a carbon dioxide incubator. After culture for 3 days, the absorbance thereof was measured by using In Vitro Toxicology Assay Kit Sulforhodamine B based (manufactured by Sigma-Aldrich Co. LLC.).
The rate of inhibition of cell growth at each concentration was calculated from the test compound concentration and the absorbance of sulforhodamine B, and the concentration of the test compound necessary for inhibiting 50% of cell growth (GI50 value) was calculated by using EXSUS (version 8.1.0, manufactured by CAC Exicare Corp.).

Molecules are shown by their SMILES.

T1 sequence (P50613 whole entry): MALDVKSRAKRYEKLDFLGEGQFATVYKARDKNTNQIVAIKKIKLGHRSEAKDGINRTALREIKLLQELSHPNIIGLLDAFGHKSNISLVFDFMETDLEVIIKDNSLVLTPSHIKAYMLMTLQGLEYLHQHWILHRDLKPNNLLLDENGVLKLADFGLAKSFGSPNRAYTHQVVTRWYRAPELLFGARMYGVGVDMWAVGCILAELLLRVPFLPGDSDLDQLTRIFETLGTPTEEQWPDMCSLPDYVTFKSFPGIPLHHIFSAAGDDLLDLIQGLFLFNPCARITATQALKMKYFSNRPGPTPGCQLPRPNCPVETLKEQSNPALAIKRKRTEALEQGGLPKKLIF
T1 sequence (P51946 whole entry partner): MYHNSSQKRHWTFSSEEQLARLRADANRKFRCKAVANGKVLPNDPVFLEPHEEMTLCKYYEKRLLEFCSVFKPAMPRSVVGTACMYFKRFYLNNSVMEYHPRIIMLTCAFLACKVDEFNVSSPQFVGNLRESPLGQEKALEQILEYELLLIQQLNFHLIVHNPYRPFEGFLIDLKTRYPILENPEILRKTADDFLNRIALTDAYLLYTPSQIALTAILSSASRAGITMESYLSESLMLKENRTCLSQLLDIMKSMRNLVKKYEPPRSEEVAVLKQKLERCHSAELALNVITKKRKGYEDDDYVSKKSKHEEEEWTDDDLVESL
T1 sequence (P51948 whole entry partner): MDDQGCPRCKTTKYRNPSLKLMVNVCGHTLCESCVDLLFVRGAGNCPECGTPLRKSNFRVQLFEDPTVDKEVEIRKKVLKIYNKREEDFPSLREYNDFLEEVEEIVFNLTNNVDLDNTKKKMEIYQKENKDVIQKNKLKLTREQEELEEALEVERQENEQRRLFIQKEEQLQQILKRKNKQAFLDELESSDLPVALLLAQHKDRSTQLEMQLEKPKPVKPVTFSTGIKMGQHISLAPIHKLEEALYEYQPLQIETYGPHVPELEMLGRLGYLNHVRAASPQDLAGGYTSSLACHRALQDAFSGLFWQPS

As for `CN(C(=O)N1Cc2c(NC(=O)C3([Si](C)(C)C)CCC3)n[nH]c2C1(C)C)c1ccccc1` [I-965, N,6,6-Trimethyl-N-phenyl-3-[1-(trimethylsilyl)cyclobutanecarboxamido]-4,6-dihydropyrrolo[3,4-c]pyrazole-5(1H)-carboxamide], at CDK7, the Ki is at most 50 nM. `Cc1cccc(Br)c1NC(=O)N1Cc2c(NC(=O)C(C)(C)[Si](C)(C)C)n[nH]c2C1(C)C` [II-290, N-(2-Bromo-6-methylphenyl)-6,6-dimethyl-3-[2-methyl-2-(trimethylsilyl)propanamido]-4,6-dihydropyrrolo[3,4-c]pyrazole-5(1H)-carboxamide]: the inhibition constant Ki at CDK7 is at most 50 nM. With `Cc1cccc(Br)c1NC(=O)N1Cc2c(NC(=O)C3([Si](C)(C)C)CC3)n[nH]c2C1(C)C` [III-299, N-(2-Bromo-6-methylphenyl)-6,6-dimethyl-3-[1-(trimethylsilyl)cyclopropanecarboxamido]-4,6-dihydropyrrolo[3,4-c]pyrazole-5(1H)-carboxamide], the Ki at CDK7 was at most 50 nM. In addition, the 50% growth inhibitory concentration (GI50) in assay [1] was at most 100 nM.

Take `CC[Si](C)(C)C1(C(=O)Nc2n[nH]c3c2CN(C(=O)Nc2ccccc2F)C3(C)C)CCC1` [IV-4, 3-[1-(Ethyldimethylsilyl)cyclobutanecarboxamido]-N-(2-fluorophenyl)-6,6-dimethyl-4,6-dihydropyrrolo[3,4-c]pyrazole-5(1H)-carboxamide]: the 50% growth inhibitory concentration (GI50) in assay [1] was at most 100 nM. Take `CC1(C)c2[nH]nc(NC(=O)C3([Si](C)(C)C)CCC3)c2CN1C(=O)Nc1cccc(F)c1` [IV-5, N-(3-Fluorophenyl)-6,6-dimethyl-3-[1-(trimethylsilyl)cyclobutanecarboxamido]-4,6-dihydropyrrolo[3,4-c]pyrazole-5(1H)-carboxamide]: in assay [1], the GI50 is at most 100 nM.

For `CC1(C)c2[nH]nc(NC(=O)C3([Si](C)(C)C)CCC3)c2CN1C(=O)Nc1ccc(F)cc1` [IV-7, N-(4-Fluorophenyl)-6,6-dimethyl-3-[1-(trimethylsilyl)cyclobutanecarboxamido]-4,6-dihydropyrrolo[3,4-c]pyrazole-5(1H)-carboxamide], at CDK7, the inhibition constant (Ki) was at most 50 nM. Also, the GI50 in assay [1] is at most 100 nM.

For `CC1(C)c2[nH]nc(NC(=O)C3([Si](C)(C)C)CCC3)c2CN1C(=O)Nc1cccc(Cl)c1` [IV-11, N-(3-Chlorophenyl)-6,6-dimethyl-3-[1-(trimethylsilyl)cyclobutanecarboxamido]-4,6-dihydropyrrolo[3,4-c]pyrazole-5(1H)-carboxamide], in assay [1], the concentration for 50% growth inhibition (GI50) is at most 100 nM. For the molecule `Cc1cccc(NC(=O)N2Cc3c(NC(=O)C4([Si](C)(C)C)CCC4)n[nH]c3C2(C)C)c1` [IV-23, 6,6-Dimethyl-N-(m-tolyl)-3-[1-(trimethylsilyl)cyclobutanecarboxamido]-4,6-dihydropyrrolo[3,4-c]pyrazole-5(1H)-carboxamide], on CDK7, the Ki is at most 50 nM. Moreover, in assay [1], the 50% growth inhibitory concentration (GI50) is at most 100 nM. As for `Cc1ccc(NC(=O)N2Cc3c(NC(=O)C4([Si](C)(C)C)CCC4)n[nH]c3C2(C)C)cc1` [IV-25, 6,6-Dimethyl-N-(p-tolyl)-3-[1-(trimethylsilyl)cyclobutanecarboxamido]-4,6-dihydropyrrolo[3,4-c]pyrazole-5(1H)-carboxamide], the GI50 in assay [1] is at most 100 nM. In the case of `CC1(C)c2[nH]nc(NC(=O)C3([Si](C)(C)C)CCC3)c2CN1C(=O)Nc1ccccc1C(F)(F)F` [IV-51, 6,6-Dimethyl-N-[2-(trifluoromethyl)phenyl]-3-[1-(trimethylsilyl)cyclobutanecarboxamido]-4,6-dihydropyrrolo[3,4-c]pyrazole-5 (1H)-carboxamide], the inhibitory constant (Ki) on CDK7 is at most 50 nM. Also, in assay [1], the GI50 was at most 100 nM. As to `CC1(C)c2[nH]nc(NC(=O)C3([Si](C)(C)C)CCC3)c2CN1C(=O)Nc1ccccc1C#N` [IV-63, N-(2-Cyanophenyl)-6,6-dimethyl-3-[1-(trimethylsilyl)cyclobutanecarboxamido]-4,6-dihydropyrrolo[3,4-c]pyrazole-5(1H)-carboxamide], the Ki at CDK7 was at most 50 nM. In addition, the 50% growth inhibitory concentration (GI50) in assay [1] is at most 100 nM. Regarding `COc1ccc(NC(=O)N2Cc3c(NC(=O)C4([Si](C)(C)C)CCC4)n[nH]c3C2(C)C)cc1` [IV-79, N-(4-Methoxyphenyl)-6,6-dimethyl-3-[1-(trimethylsilyl)cyclobutanecarboxamido]-4,6-dihydropyrrolo[3,4-c]pyrazole-5(1H)-carboxamide], the inhibition constant (Ki) at CDK7 was at most 50 nM. Also, the concentration for 50% growth inhibition (GI50) in assay [1] was at most 100 nM. For `CCOc1ccccc1NC(=O)N1Cc2c(NC(=O)C3([Si](C)(C)C)CCC3)n[nH]c2C1(C)C` [IV-81, N-(2-Ethoxyphenyl)-6,6-dimethyl-3-[1-(trimethylsilyl)cyclobutanecarboxamido]-4,6-dihydropyrrolo[3,4-c]pyrazole-5(1H)-carboxamide], the GI50 in assay [1] is at most 100 nM. Regarding `CC1(C)c2[nH]nc(NC(=O)C3([Si](C)(C)C)CCC3)c2CN1C(=O)Nc1ccccc1OC(F)(F)F` [IV-93, 6,6-Dimethyl-N-[2-(trifluoromethoxy)phenyl]-3-[1-(trimethylsilyl)cyclobutanecarboxamido]-4,6-dihydropyrrolo[3,4-c]pyrazole-5(1H)-carboxamide], the Ki on CDK7 was at most 50 nM. Further, the 50% growth inhibitory concentration (GI50) in assay [1] is at most 100 nM. Regarding `Cc1cccc(NC(=O)N2Cc3c(NC(=O)C4([Si](C)(C)C)CCC4)n[nH]c3C2(C)C)c1F` [IV-123, N-(2-Fluoro-3-methylphenyl)-6,6-dimethyl-3-[1-(trimethylsilyl)cyclobutanecarboxamido]-4,6-dihydropyrrolo[3,4-c]pyrazole-5 (1H)-carboxamide], the GI50 in assay [1] was at most 100 nM. On to `CC1(C)c2[nH]nc(NC(=O)C3([Si](C)(C)C)CCC3)c2CN1C(=O)Nc1cc(F)ccc1Cl` [IV-191, N-(2-Chloro-5-fluorophenyl)-6,6-dimethyl-3-[1-(trimethylsilyl)cyclobutanecarboxamido]-4,6-dihydropyrrolo[3,4-c]pyrazole-5 (1H)-carboxamide], for which, in assay [1], the 50% growth inhibitory concentration (GI50) was at most 100 nM. As to `CC1(C)c2[nH]nc(NC(=O)C3([Si](C)(C)C)CCC3)c2CN1C(=O)Nc1cc(Cl)ccc1Cl` [IV-197, N-(2,5-Dichlorophenyl)-6,6-dimethyl-3-[1-(trimethylsilyl)cyclobutanecarboxamido]-4,6-dihydropyrrolo[3,4-c]pyrazole-5(1H)-carboxamide], the GI50 in assay [1] was at most 100 nM. As for `Cc1ccc(Cl)c(NC(=O)N2Cc3c(NC(=O)C4([Si](C)(C)C)CCC4)n[nH]c3C2(C)C)c1` [IV-213, N-(2-Chloro-5-methylphenyl)-6,6-dimethyl-3-[1-(trimethylsilyl)cyclobutanecarboxamido]-4,6-dihydropyrrolo[3,4-c]pyrazole-5 (1H)-carboxamide], in assay [1], the GI50 is at most 100 nM.

On to `COc1ccc(Cl)c(NC(=O)N2Cc3c(NC(=O)C4([Si](C)(C)C)CCC4)n[nH]c3C2(C)C)c1` [IV-245, N-(2-Chloro-5-methoxyphenyl)-6,6-dimethyl-3-[1-(trimethylsilyl)cyclobutanecarboxamido]-4,6-dihydropyrrolo[3,4-c]pyrazole-5(1H)-carboxamide], for which the GI50 in assay [1] is at most 100 nM.

Turning to `CC1(C)c2[nH]nc(NC(=O)C3([Si](C)(C)C)CCC3)c2CN1C(=O)Nc1cccnc1` [IV-1019, 6,6-Dimethyl-N-(pyridin-3-yl)-3-[1-(trimethylsilyl)cyclobutanecarboxamido]-4,6-dihydropyrrolo[3,4-c]pyrazole-5(1H)-carboxamide], the Ki at CDK7 was at most 50 nM.
